Laboratory results: US8501483B2, “Method of assessing cancer status in a breast cancer patient” (University College Dublin, National University of Ireland, …, priority 2008, dated 2013)

Key:
[1] = test system: HOX-C11; experiment: Immunocytochemistry of HOX-C11 in tamoxifen-resistant cells; assay type: cell-based
Text: (§1) Increased interactions between HOX-C11 and SRC-1 were found in endocrine resistant versus endocrine sensitive breast cancer. Furthermore these interactions were enhanced in the presence of endocrine modulators, tamoxifen and faslodex (FIG. 1). In primary breast cancer tissue HOX-C11 and SRC-1 were co-localised to the nucleus and perinuclear region of the tumour epithelial cells (FIG. 2). A greater interaction occurred in tamoxifen-resistant LY2 cells, compared with the parent MCF-7 sensitive cell line. HOX genes play a central role in ductal formation and lobulo-aleolar development by regulating epithelial proliferation and differentiation in the developing breast and have been implicated in steroid/growth-factor pathway crosstalk. […] S100β has been identified as a possible target gene of the HOX-C11 transcription factor. Several HOX responsive elements have been identified in the promoter of S100β and forced expression of HOX-C11 in neuronal cells induces expression of S100β. This family of calcium binding protein is secreted and has previously been associated with poor outcome and reduced disease-free survival in melanoma. Experimental data provides evidence for a functional interaction between SRC-1 and HOX-C11. Knockdown of SRC-1 using siRNA abrogated the HOX-C11 associated induction of S100β (FIG. 4B). […]

[2] = test system: interactions between SRC-1 and HOX-C11; experiment: Immunoprecipitation of SRC-1 and subsequent immunoblot for HOX-C11 in endocrine resistant LY2 cells; assay type: cell-based; details: endocrine resistant breast cancer LY2 cells, 10^−8 M, FIG. 1
Procedure: FIG. 1: Confirmation of differential interactions between SRC-1 and HOX-C11 in endocrine resistant breast cancer LY2 cells in the presence of tamoxifen (4-OHT) and faslodex (ICI) (10^−8 M) was performed by immunoprecipitation of SRC-1 and subsequent immunoblot for HOX-C11.
as §1, with “S100β.” for “S100β. This family of calcium binding protein is secreted and has previously been associated with poor outcome and reduced disease-free survival in melanoma. Experimental data provides evidence for a functional interaction between SRC-1 and HOX-C11. Knockdown of SRC-1 using siRNA abrogated the HOX-C11 associated induction of S100β (FIG. 4B).”

| Compound | HOX-C11 localisation when cells were treated [1] | interactions between HOX-C11 and SRC-1 [2] |
| --- | --- | --- |
| C[C@]12CC[C@@H]3c4ccc(O)cc4C[C@@H](CCCCCCCCC[S+]([O-])CCCC(F)(F)C(F)(F)F)[C@H]3[C@@H]1CC[C@@H]2O (stereo partly shown) [faslodex] | translocate to the nucleus and peri-nuclear region | enhanced |
| CC/C(=C(\c1ccccc1)c1ccc(OCCN(C)C)cc1)c1ccccc1 [tamoxifen] | translocate to the nucleus and peri-nuclear region | enhanced |
